Laboratory results reported in patent publication US20090253651A1, “DRUG DELIVERY SYSTEM BASED ON REGIOSELECTIVELY AMIDATED HYALURONIC ACID” (EURAND PHARMACEUTICALS LTD., priority 2006, published 2009).

Key:
Type in all cases: cell-based
[1] = system: H460 (lung carcinoma); assay: Antiproliferative activity, MTT test, H460; conditions: Homo sapiens, NCI-H460; H460 cells, 5 days treatment, MTT on day 6; read-out: IC50, concentration necessary to reduce the cell growth to 50% of the growth of the control
Experimental: (§1) Antiproliferative activity of the DDS was determined on three lines of carcinoma (HT29: colon rectal carcinoma, H460: lung carcinoma, H460M2: lung metastatic carcinoma which are CPT sensitive. Cells were incubated in 96-well plates for 5 days in complete RPMI1640 Medium (Sigma Chemical Co.) supplemented with 10% FBS (Hyclone Europe), 2 mM L-glutamine (Hyclone Europe), and 100 U/ml penicillin G and 100 ug/ml streptomycin (Sigma Chemical Co.) at […], and in controlled atmosphere (5% CO2), with irinotecan and DDSs of examples 38, 39, 41; the DDS were tested at doses equimolar with those of the reference, in the range 3-30 nM and 0.1-30 μM.
(§2) Cytotoxicity was determined on day 6 (after 5 days treatments) by the MTT test, by measuring cell viability as the cell metabolic capacity to transform the tetrazolium salt of MTT in the blue formazan, by mitochondrial dehydrogenases; the blue colour is read at 570 nm with a spectrophotometer. The following DDSs were tested.

[2] = system: H460-M2 (lung metastatic carcinoma); assay: Antiproliferative activity, MTT test, H460-M2; conditions: H460-M2 cells, 5 days treatment, MTT on day 6; read-out: IC50, concentration necessary to reduce the cell growth to 50% of the growth of the control
Experimental: as §1, §2

[3] = system: HT29 (colon rectal carcinoma); assay: Antiproliferative activity, MTT test, HT29; conditions: Homo sapiens, HT-29; HT29 cells, 5 days treatment, MTT on day 6; read-out: IC50, concentration necessary to reduce the cell growth to 50% of the growth of the control
Experimental: as §1, §2

IC50 [1]: 440 nM | IC50 [2]: 460 nM | IC50 [3]: 250 nM
SMILES: CCc1c2c(nc3ccc(OC(=O)N4CCC(N5CCCCC5)CC4)cc13)-c1cc3c(c(=O)n1C2)COC(=O)[C@]3(O)CC [Irinotecan, irinotecan]
